Two compounds from ChEMBL document CHEMBL5678818, “Discovery of potent SOS1 inhibitors that block RAS activation via disruption of the RAS-SOS1 interaction” (Proc Natl Acad Sci U S A, 2019) can be followed below.

The structures appear in SMILES notation.

Experiment [1] concerns Serine/threonine-protein kinase B-raf (Homo sapiens), P15056 [V600E]. Kind of experiment: Inhibition of BRAF V600E mutant (unknown origin) assessed as residual activity at 1000 nM by KINOMEscan analysis relative to control.
In experiment [2] the target is T1, Phosphatidylinositol 5-phosphate 4-kinase type-2 beta (Homo sapiens) (UniProt P78356).
T1 sequence (whole entry): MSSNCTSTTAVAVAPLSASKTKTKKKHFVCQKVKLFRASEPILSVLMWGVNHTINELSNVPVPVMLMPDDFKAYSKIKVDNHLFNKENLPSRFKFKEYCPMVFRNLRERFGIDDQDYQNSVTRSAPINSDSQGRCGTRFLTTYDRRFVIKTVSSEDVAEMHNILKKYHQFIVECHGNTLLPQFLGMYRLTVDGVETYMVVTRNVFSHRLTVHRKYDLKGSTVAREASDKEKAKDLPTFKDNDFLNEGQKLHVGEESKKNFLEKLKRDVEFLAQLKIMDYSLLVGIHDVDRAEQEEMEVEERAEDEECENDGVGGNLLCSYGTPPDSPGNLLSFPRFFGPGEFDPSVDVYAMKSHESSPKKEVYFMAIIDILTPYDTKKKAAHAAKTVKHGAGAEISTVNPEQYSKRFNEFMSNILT
Kind of experiment: Inhibition of PIP5K2B (unknown origin) assessed as residual activity at 1000 nM by KINOMEscan analysis relative to control.

For experiment [3], the target named is T2, Serine/threonine-protein kinase 36 (Homo sapiens) (UniProt Q9NRP7).
T2 sequence (whole entry): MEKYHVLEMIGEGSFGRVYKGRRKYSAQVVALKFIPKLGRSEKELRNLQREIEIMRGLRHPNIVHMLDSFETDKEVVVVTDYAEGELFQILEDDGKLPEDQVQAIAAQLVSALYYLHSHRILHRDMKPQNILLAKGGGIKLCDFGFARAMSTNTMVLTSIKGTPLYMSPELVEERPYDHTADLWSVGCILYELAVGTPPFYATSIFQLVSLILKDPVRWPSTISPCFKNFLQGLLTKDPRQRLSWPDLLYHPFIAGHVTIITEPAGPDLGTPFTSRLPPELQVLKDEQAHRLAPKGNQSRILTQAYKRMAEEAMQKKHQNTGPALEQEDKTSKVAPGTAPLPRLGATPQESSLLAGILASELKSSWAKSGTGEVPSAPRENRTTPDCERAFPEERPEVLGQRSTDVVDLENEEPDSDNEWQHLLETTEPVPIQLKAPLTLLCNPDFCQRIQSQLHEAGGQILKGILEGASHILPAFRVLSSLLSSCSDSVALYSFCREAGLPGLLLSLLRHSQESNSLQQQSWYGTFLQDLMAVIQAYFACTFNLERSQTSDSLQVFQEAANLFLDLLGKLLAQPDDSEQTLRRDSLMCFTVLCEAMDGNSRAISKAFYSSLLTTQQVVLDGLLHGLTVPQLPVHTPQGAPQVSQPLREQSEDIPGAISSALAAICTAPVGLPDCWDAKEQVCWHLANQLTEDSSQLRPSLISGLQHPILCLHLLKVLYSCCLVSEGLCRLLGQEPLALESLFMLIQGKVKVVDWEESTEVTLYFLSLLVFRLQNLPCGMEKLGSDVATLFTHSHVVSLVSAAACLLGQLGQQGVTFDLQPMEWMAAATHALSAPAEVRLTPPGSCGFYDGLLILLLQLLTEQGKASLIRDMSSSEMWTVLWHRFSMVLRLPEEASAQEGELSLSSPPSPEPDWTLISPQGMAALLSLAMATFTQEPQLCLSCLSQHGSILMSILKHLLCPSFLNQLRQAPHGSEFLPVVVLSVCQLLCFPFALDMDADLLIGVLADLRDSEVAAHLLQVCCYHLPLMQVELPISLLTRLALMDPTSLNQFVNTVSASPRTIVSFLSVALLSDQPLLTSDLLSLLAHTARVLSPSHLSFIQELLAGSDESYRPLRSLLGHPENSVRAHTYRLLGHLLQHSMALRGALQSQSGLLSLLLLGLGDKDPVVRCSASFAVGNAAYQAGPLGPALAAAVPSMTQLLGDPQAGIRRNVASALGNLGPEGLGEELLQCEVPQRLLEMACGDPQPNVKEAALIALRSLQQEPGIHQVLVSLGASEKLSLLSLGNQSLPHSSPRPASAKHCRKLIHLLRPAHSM
Kind of experiment: Inhibition of STK36 (unknown origin) assessed as residual activity at 1000 nM by KINOMEscan analysis relative to control.

Experiment [4] concerns the target Hepatocyte growth factor receptor (Homo sapiens) (UniProt P08581). Kind of experiment: Inhibition of MET (unknown origin) assessed as residual activity at 1000 nM by KINOMEscan analysis relative to control.
The target in experiment [5] is Proto-oncogene tyrosine-protein kinase receptor Ret (Homo sapiens) (UniProt P07949). Kind of experiment: Inhibition of RET (unknown origin) assessed as residual activity at 1000 nM by KINOMEscan analysis relative to control.
The target in experiment [6] is Mitogen-activated protein kinase 7 (Homo sapiens) (UniProt Q13164). Kind of experiment: Inhibition of ERK5 (unknown origin) assessed as residual activity at 1000 nM by KINOMEscan analysis relative to control.
Experiment [7] addresses Homeodomain-interacting protein kinase 2 (Homo sapiens) (UniProt Q9H2X6). Briefly: Inhibition of HIPK2 (unknown origin) assessed as residual activity at 1000 nM by KINOMEscan analysis relative to control.
Experiment [8] has as its target Calcium/calmodulin-dependent protein kinase kinase 1 (Homo sapiens) (UniProt Q8N5S9). Kind of experiment: Inhibition of CAMKK1 (unknown origin) assessed as residual activity at 1000 nM by KINOMEscan analysis relative to control.

Sequence of Hepatocyte growth factor receptor (Homo sapiens) (P08581 whole entry): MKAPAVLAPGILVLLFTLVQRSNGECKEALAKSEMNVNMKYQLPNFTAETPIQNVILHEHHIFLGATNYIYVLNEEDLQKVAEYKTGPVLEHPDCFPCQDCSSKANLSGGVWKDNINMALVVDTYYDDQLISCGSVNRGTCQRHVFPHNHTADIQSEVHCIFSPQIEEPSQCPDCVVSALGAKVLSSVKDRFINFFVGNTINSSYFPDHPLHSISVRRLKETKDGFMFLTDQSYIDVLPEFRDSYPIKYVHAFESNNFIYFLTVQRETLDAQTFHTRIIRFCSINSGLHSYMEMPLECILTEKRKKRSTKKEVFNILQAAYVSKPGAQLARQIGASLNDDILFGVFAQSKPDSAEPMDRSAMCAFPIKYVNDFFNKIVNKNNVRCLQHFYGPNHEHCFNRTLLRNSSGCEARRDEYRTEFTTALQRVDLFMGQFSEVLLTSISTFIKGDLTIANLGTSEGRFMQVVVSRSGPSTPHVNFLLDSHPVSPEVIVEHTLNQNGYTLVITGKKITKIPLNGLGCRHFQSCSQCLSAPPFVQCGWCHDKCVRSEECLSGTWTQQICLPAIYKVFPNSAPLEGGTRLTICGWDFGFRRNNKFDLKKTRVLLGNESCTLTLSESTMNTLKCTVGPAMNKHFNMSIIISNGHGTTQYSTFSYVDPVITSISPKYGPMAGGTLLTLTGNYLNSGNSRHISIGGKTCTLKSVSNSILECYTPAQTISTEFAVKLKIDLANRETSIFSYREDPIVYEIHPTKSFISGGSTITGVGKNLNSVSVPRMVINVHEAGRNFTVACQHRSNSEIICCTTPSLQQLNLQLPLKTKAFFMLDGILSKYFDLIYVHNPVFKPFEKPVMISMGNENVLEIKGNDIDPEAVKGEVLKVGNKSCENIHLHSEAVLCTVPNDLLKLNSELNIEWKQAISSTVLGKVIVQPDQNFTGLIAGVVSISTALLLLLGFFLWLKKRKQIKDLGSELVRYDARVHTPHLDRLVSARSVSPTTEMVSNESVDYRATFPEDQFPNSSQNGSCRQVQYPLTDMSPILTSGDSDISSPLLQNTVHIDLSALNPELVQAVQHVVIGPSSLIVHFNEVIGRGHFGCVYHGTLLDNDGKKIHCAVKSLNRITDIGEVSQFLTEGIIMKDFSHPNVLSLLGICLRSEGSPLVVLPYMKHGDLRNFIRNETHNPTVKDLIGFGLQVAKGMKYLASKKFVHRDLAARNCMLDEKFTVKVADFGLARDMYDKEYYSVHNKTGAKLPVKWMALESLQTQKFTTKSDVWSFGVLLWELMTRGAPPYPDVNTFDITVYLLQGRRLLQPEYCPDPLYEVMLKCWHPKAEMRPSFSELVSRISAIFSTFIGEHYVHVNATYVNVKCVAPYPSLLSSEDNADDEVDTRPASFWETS
Sequence of Mitogen-activated protein kinase 7 (Homo sapiens) (Q13164 2-816 limits assumed): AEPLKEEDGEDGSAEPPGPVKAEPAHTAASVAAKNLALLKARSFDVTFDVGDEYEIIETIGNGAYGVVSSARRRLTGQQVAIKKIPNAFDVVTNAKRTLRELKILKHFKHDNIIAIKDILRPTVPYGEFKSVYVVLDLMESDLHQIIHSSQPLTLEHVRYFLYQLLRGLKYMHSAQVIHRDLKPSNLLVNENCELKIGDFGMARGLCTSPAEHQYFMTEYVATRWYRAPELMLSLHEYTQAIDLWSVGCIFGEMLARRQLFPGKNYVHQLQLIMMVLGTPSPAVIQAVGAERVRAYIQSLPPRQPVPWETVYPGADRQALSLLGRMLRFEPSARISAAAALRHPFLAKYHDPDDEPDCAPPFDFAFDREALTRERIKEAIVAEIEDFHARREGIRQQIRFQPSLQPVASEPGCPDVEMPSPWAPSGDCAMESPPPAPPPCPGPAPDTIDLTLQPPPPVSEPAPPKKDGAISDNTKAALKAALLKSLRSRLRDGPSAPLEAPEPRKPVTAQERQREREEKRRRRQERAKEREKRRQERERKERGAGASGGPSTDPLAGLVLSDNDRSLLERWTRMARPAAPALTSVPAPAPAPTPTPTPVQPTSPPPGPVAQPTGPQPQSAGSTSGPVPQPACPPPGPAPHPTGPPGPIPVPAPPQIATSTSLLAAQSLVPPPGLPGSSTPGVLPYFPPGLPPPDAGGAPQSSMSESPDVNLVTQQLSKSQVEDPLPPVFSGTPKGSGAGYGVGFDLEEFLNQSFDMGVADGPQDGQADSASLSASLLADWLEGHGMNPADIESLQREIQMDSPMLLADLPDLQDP
Sequence of Serine/threonine-protein kinase B-raf (Homo sapiens), P15056 [V600E] (P15056 whole entry V600E): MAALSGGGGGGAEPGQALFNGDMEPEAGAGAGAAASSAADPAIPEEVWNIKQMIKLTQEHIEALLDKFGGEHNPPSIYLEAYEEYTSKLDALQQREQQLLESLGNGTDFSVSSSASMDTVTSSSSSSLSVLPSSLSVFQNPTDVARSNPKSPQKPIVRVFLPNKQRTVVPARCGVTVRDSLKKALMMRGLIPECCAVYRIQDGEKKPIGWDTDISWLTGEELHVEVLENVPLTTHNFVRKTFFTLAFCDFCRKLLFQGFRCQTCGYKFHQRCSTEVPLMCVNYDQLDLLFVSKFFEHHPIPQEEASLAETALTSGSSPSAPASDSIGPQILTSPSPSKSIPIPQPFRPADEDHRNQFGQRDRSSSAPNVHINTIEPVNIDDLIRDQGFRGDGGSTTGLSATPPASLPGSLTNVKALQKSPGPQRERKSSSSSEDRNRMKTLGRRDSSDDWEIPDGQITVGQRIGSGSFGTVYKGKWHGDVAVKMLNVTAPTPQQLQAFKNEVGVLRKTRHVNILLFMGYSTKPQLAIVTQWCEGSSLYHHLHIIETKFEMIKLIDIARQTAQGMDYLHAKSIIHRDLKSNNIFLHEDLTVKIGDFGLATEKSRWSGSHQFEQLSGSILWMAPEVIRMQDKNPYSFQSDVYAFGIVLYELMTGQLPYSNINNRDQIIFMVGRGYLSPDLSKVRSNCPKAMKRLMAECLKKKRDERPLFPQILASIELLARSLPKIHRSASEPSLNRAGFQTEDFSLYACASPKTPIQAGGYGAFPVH
Sequence of Calcium/calmodulin-dependent protein kinase kinase 1 (Homo sapiens) (Q8N5S9 whole entry, looked up): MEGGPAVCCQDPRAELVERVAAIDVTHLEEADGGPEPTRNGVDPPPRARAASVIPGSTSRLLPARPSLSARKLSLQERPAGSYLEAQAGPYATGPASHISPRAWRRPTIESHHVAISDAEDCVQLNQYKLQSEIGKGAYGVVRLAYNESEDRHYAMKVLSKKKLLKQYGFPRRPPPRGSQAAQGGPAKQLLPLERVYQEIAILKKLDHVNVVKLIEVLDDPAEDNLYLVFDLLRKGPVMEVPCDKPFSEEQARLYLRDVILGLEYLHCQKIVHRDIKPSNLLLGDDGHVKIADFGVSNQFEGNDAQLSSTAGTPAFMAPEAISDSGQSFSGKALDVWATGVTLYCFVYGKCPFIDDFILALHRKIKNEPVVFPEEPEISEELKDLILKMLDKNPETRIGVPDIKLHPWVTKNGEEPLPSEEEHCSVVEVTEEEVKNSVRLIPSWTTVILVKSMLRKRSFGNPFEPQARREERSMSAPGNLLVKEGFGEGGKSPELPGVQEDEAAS
Sequence of Homeodomain-interacting protein kinase 2 (Homo sapiens) (Q9H2X6 whole entry, looked up): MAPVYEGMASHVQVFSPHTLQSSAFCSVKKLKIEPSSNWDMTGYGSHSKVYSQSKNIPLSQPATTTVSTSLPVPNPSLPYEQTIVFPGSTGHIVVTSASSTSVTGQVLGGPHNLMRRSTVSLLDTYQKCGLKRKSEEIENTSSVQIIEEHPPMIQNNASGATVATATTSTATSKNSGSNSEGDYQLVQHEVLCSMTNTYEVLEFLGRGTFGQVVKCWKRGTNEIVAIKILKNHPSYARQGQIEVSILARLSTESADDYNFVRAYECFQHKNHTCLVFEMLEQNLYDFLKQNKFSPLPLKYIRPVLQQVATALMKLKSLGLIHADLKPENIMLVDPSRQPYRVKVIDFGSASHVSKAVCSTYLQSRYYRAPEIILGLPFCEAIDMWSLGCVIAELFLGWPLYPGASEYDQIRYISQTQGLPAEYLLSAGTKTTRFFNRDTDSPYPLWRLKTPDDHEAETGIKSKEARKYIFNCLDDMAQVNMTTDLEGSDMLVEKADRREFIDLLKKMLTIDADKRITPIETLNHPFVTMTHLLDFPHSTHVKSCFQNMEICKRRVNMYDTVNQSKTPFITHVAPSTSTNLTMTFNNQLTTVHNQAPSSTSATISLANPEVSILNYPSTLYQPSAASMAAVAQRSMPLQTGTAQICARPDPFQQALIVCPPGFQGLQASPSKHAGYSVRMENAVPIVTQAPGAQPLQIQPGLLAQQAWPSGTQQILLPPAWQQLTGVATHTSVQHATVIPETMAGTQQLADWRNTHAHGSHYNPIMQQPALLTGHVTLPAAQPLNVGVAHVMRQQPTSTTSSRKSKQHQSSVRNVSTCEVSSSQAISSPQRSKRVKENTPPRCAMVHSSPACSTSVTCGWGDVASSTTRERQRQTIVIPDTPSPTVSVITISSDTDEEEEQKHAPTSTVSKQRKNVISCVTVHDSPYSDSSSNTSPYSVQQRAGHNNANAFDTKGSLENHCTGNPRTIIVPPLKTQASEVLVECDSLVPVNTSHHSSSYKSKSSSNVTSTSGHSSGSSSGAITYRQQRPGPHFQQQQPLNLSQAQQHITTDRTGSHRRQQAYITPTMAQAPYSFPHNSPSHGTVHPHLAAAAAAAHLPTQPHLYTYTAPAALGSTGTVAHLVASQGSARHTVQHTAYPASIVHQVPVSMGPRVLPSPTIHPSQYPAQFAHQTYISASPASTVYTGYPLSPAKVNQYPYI

As for `COc1cc2nc(C)nc(N[C@H](C)c3cccc(-c4cn[nH]c4)c3)c2cc1OC`, the Activity in experiment [1] is 65%; in experiment [2] it was 89%; in experiment [3], 100%; in experiment [4], 97%; in experiment [5], 94%; in experiment [6], 69%. The Activity in experiment [7] was determined as 100%; in experiment [8] it was 73%.
With `COc1cc2ncnc(N[C@H](C)c3cccc4ccccc34)c2cc1OC`, the Activity in experiment [1] worked out at 97%; in experiment [2], 100%; in experiment [3], 100%; in experiment [4] it was 100%; in experiment [5] it was 92%; in experiment [6], 91%. Moreover, the results for the Activity in experiment [7] and in experiment [8] were 98% and 97%, respectively.
